From publication PMC5736559, “Dual blockade of the lipid kinase PIP4Ks and mitotic pathways leads to cancer-selective lethality” (Nature Communications, 2017) come the findings set out here.

One assay addresses PIP4K2A (Homo sapiens, UniProt P48426). The assay can be described thus: ADP-Glo kinase assay with purified PIP4K2A and PI([…])P. In kind it is biochemical.
The next assay concerns the target T1, Ferrochelatase (Homo sapiens, UniProt P22830).
T1 construct: gene FECH
As to the kind of experiment: MS-CETSA thermal shift in normal BJ cell lysate, […] compound (off-target hit). In kind it is cell-based.

The next assay concerns the target PIP4K2C (Homo sapiens, UniProt Q8TBX8). As to the kind of experiment: MS-CETSA thermal shift in normal BJ cell lysate, […] compound. The class given is cell-based.
A further assay has as its system A549. As to the kind of experiment: cells. The arrangement: MTT cell viability/proliferation assay, absorbance 540 minus 660 nm, GI50 by non-linear regression. To be noted: Homo sapiens, A549; cancer cells, 72 h MTT. The method, then:
(§1) Cells were plated in 96-well microplates on day 0, and a131 was added to each well on day 1 at a range of different concentrations (from 0.1 to 40 μM) in triplicate. After 3 days of culture, the number of viable cells was determined using MTT cell proliferation assays by adding thiazolyl blue tetrazolium bromide (MTT reagent, Invitrogen) at a concentration of 0.5 mg/ml to each well and incubating for 4 h at 37 °C. The medium was then removed, and the blue dye remaining in each well was dissolved in DMSO by mixing with a microplate mixer. The absorbance of each well was measured at 540 and 660 nm using a microplate reader (Benchmark plus, Bio-Rad). Optical density (OD) values were calculated by subtracting the absorbance at 660 nm from the absorbance at 540 nm. Mean OD values from control cells containing only DMSO-treated wells were set as 100% viable. […] Mean values with ± standard deviation (S.D.) are shown (n = 3). c, d Normal and transformed BJ cells were treated with a131 at 2.5 μM for 48 h. c FACS analysis using BrdU and PI double staining of the indicated cells. Percentages of BrdU-positive (S) population indicating cell cycle arrest and subG1 (<2N) population indicating cell death are shown. Representative FACS analysis shown (n = 3). d Immunoblot analysis of cleaved PARP and caspase-3 (Cas-3) indicating a131-induced apoptosis in transformed BJ cells (lanes 5, 6), but not normal counterparts (lanes 2, 3). Representative immunoblots shown (n = 3). e MTT assay of human normal and cancer cell lines treated with a131 for 72 h (n = 3). Mean concentration values for a131 to achieve 50% growth inhibition (GI50) in each cell line are plotted with ± S.D. f FACS analysis of a series of engineered BJ-derived fibroblasts treated with a131 at 5 µM for 48 h. Mean values of subG1 (<2N) population ± S.D. are shown (n > 3). g, h Normal and transformed BJ cells stably expressing GFP-histone H2B were treated with a131 at 2.5 μM for 32 h prior to fixation. g Immunofluorescence analysis with representative images (n = 3). h Quantification of cells (n > 100 per condition) with the indicated centrosome numbers. Mean values ± S.D. are shown (n = 3). i Mice bearing established tumor xenografts were treated orally (PO) or intraperitoneally (IP) twice daily with the indicated doses of a131 or its derivative b5. Tumor volumes were calculated periodically as indicated. Paclitaxel (PTX) was administered intravenously for twice every 4 days. Mean tumor volumes ± S.D. from six mice are shown. Two-way ANOVA was performed to determine statistical significance compared to vehicle control. j, k TUNEL staining (j) or immu

In the next assay the test system is HCT15. As to the kind of experiment: cells. Further details: MTT cell viability/proliferation assay, absorbance 540 minus 660 nm, GI50 by non-linear regression. To be noted: Homo sapiens, HCT-15; cancer cells, 72 h MTT. The protocol:
as §1

The subject of the next assay is Huh7. As to the kind of experiment: cells. To be noted: Homo sapiens, Huh-7; cancer cells, 72 h MTT. The arrangement: MTT cell viability/proliferation assay, absorbance 540 minus 660 nm, GI50 by non-linear regression. The protocol:
as §1

The test system of the next assay is SNU1. The assay can be described thus: cells. Further details: MTT cell viability/proliferation assay, absorbance 540 minus 660 nm, GI50 by non-linear regression. To be noted: Homo sapiens, SNU1; cancer cells, 72 h MTT. The protocol: as §1
Another assay concerns NCC59. The assay can be described thus: cells. Further details: MTT cell viability/proliferation assay, absorbance 540 minus 660 nm, GI50 by non-linear regression. To be noted: cancer cells, 72 h MTT. The method, then:
as §1

Another assay concerns SNU449. The assay can be described thus: cells. Further details: MTT cell viability/proliferation assay, absorbance 540 minus 660 nm, GI50 by non-linear regression. To be noted: Homo sapiens, SNU-449; cancer cells, 72 h MTT. The protocol: as §1
A further assay deals with HCT116. As to the kind of experiment: cells. The arrangement: MTT cell viability/proliferation assay, absorbance 540 minus 660 nm, GI50 by non-linear regression. To be noted: Homo sapiens, HCT-116; cancer cells, 72 h MTT. The protocol: as §1
The next assay has as its system MDA-MB-231. The assay can be described thus: cells. Further details: MTT cell viability/proliferation assay, absorbance 540 minus 660 nm, GI50 by non-linear regression. Particulars: Homo sapiens, MDA-MB-231; cancer cells, 72 h MTT. The method, then:
as §1

The next assay relates to HGC27. As to the kind of experiment: cells. The arrangement: MTT cell viability/proliferation assay, absorbance 540 minus 660 nm, GI50 by non-linear regression. Particulars: Homo sapiens, HGC-27; cancer cells, 72 h MTT. The protocol: as §1
The next assay deals with AGS. As to the kind of experiment: cells. The arrangement: MTT cell viability/proliferation assay, absorbance 540 minus 660 nm, GI50 by non-linear regression. Particulars: Homo sapiens, AGS; cancer cells, 72 h MTT. The method, then:
as §1

The next assay deals with MCF7. As to the kind of experiment: cells. The arrangement: MTT cell viability/proliferation assay, absorbance 540 minus 660 nm, GI50 by non-linear regression. To be noted: Homo sapiens, MCF7; cancer cells, 72 h MTT. The protocol: as §1
The subject of the next assay is SNU-16. The assay can be described thus: cells. Further details: MTT cell viability/proliferation assay, absorbance 540 minus 660 nm, GI50 by non-linear regression. To be noted: Homo sapiens, SNU-16; cancer cells, 72 h MTT. The method, then: as §1
In a further assay the test system is IM95. The assay can be described thus: cells. Further details: MTT cell viability/proliferation assay, absorbance 540 minus 660 nm, GI50 by non-linear regression. To be noted: Homo sapiens, IM95; cancer cells, 72 h MTT. The protocol: as §1
The subject of another assay is SNU1750. As to the kind of experiment: cells. Further details: MTT cell viability/proliferation assay, absorbance 540 minus 660 nm, GI50 by non-linear regression. To be noted: cancer cells, 72 h MTT. The method, then:
as §1

In the next assay the test system is NUGC3. The assay can be described thus: cells. The arrangement: MTT cell viability/proliferation assay, absorbance 540 minus 660 nm, GI50 by non-linear regression. Particulars: Homo sapiens, NUGC-3; cancer cells, 72 h MTT. The method, then: as §1
A further assay concerns SNU620. As to the kind of experiment: cells. Further details: MTT cell viability/proliferation assay, absorbance 540 minus 660 nm, GI50 by non-linear regression. Particulars: SNU620; cancer cells, 72 h MTT. The protocol:
as §1

For the next assay, the system named is HT29. The assay can be described thus: cells. Particulars: Homo sapiens, HT-29; cancer cells, 72 h MTT. Further details: MTT cell viability/proliferation assay, absorbance 540 minus 660 nm, GI50 by non-linear regression. The protocol: as §1
Another assay deals with NCC24. The assay can be described thus: cells. To be noted: cancer cells, 72 h MTT. Further details: MTT cell viability/proliferation assay, absorbance 540 minus 660 nm, GI50 by non-linear regression. The protocol:
as §1

A further assay relates to HeLa. The assay can be described thus: cells. The arrangement: MTT cell viability/proliferation assay, absorbance 540 minus 660 nm, GI50 by non-linear regression. To be noted: Homo sapiens, HeLa; cancer cells, 72 h MTT. The protocol: as §1

PIP4K2C, sequence (Q8TBX8 2-421): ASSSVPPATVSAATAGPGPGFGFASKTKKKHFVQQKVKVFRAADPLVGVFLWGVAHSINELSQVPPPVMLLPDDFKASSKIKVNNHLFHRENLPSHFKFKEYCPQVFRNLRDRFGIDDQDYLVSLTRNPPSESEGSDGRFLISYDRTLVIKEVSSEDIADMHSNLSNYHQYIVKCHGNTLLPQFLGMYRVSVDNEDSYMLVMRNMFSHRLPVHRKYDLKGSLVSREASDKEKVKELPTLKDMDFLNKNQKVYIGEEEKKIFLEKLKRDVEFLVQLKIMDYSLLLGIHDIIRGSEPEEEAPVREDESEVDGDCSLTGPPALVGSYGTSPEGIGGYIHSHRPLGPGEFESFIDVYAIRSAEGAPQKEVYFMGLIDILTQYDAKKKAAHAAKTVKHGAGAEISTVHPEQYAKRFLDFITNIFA
T1 sequence (P22830 55-423): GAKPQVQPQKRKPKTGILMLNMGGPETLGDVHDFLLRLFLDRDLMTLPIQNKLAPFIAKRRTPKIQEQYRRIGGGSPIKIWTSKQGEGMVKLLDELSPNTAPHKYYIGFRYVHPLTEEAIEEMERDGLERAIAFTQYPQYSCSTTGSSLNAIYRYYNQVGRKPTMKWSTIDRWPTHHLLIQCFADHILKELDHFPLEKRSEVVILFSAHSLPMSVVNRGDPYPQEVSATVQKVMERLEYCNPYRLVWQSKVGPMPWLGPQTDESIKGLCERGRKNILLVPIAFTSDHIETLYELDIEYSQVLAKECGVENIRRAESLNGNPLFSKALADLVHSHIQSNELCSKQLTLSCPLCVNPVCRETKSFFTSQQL
PIP4K2A, sequence (P48426 2-406): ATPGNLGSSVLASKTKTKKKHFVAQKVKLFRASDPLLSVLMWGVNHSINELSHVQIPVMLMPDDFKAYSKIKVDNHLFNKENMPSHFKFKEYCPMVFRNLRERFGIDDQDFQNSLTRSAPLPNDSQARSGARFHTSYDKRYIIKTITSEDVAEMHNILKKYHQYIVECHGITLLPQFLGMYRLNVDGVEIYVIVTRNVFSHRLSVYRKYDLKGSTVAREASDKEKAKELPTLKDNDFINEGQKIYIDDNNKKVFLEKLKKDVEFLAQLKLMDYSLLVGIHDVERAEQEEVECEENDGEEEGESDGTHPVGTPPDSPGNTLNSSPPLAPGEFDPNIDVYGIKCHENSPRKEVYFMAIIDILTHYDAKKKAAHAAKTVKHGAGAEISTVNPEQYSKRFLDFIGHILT

In turn, `COc1cc(/C=C(\C#N)C(=O)c2ccc(O)c(O)c2)cc(I)c1O` [I-OMe-AG-538] registered an IC50 at PIP4K2A of 2100 nM.
In the case of `N#C/C(=C\c1cccc2cnccc12)c1c[nH]c2ccccc12` [a131], at Ferrochelatase, the “MS-CETSA thermal shift in normal BJ cell lysate, 100 μM compound (off-target hit)” value is “Ferrochelatase in a131 and coproporphyrinogen-III oxidase in a166 were identified as prominent hits”. At PIP4K2C, the “MS-CETSA thermal shift in normal BJ cell lysate, 100 μM compound” value is “two out of the three family members (PIP4K2A and 2C) in a131”. The GI50 with A549 is 1970 nM; with HCT15 it was 545 nM; in the assay on Huh7, 1180 nM; in the assay on SNU1 it was 919 nM; in the assay with NCC59, 944 nM; in the assay on SNU449 it was 2270 nM. For the same molecule, the GI50 in the assay on HCT116 came out at 1840 nM; with MDA-MB-231 it was 1140 nM; with HGC27 it was 1170 nM; in the assay on AGS it was 1130 nM; in the assay on MCF7, 1240 nM; with SNU-16 it was 982 nM. Also, the GI50 was 1040 nM in the assay with IM95; 747 nM in the assay with SNU1750; 1040 nM in the assay on NUGC3; 982 nM in the assay with SNU620; 915 nM with HT29; 1230 nM in the assay on NCC24. The molecule further yielded a GI50 with HeLa of 1440 nM.
